{"source": "paper PMC10263210", "about": "“Design, Synthesis and Biological Evaluation of Novel MDH Inhibitors Targeting Tumor Microenvironment” (Pharmaceuticals, 2023)", "key": {"[1]": {"tested_on": "H460 lung cancer cells", "assay": "Cell growth inhibition assay (SRB), H460", "assay_type": "cell-based", "conditions": "Homo sapiens, NCI-H460, means of three experiments, read-out: Cell Viability IC50 H460", "method": "(§1) At the same time, we investigated the effect of the compounds on the growth inhibition of A549 and H460 lung cancer cells bearing KRAS and LKB1 mutations. […] Compound 50 containing a piperidine linker was selected for further analysis.\n(§2) Human lung carcinoma A549 cells were cultured in Dulbecco’s modified Eagle’s medium and H460 cells were cultured in RPMI 1640 medium containing 10% fetal bovine serum and 1% penicillin/streptomycin at 37 °C with a 5% Co2 hypoxia experimental condition. The cells were grown in the hypoxia chamber (1% O2, 94% N2, and 5% Co2 in a multigas incubator)\n(§3) Cell growth inhibition was assessed using sulforhodamine B (SRB) as described in [34]. The cells were fixed with 10% formalin (Sigma-Aldrich) and stained with 0.4% SRB. Protein-bound dye was dissolved in 10 mM of Tris, and its optical density was measured at 540 nm."}, "[2]": {"tested_on": "A549 lung cancer cells", "assay": "Cell growth inhibition assay (SRB), A549", "assay_type": "cell-based", "conditions": "Homo sapiens, means of three experiments, read-out: Cell Viability IC50 A549", "method": "as §1, §2, §3"}, "[3]": {"tested_on": "A549 cells", "assay": "ADP/ATP ratio assay", "assay_type": "cell-based, human", "method": "(§4) Malate transported to the interior of the mitochondria is oxidized to OAA by mitochondrial MDH2, thereby generating NADH, which then enters the ETC to produce ATP. Because inhibition of MAS is expected to reduce ATP production in cancer cells, the total amount of ATP was measured after treatment with compound 50.\nThe ADP/ATP ratio assay kit (Sigma-Aldrich, USA) was used for ADP/ATP determination according to the manufacturer’s instructions. Samples for analysis were prepared using the ADP/ATP ratio assay kit. A549 cells were cultured directly in an assay microplate. The culture medium was removed, and then 90 µL of ATP reagent was added to each well and incubated for 1 min at room temperature. Luminescence was measured on a luminometer for ATP (RLUA), and the plate was incubated for an additional 10 min. Next, the luminescence was read on a luminometer for ATP (RLUB). Five microliters of ADP reagent were added to each well. After 1 min, the luminescence was read (RLUC)."}, "[4]": {"assay": "Lactate consumption in treated cells", "assay_type": "cell-based", "conditions": "cells treated with compound", "from_the_text": "In contrast, high aerobic glycolysis distinguishes cancer cells from normal cells and has been exploited to detect tumors in vivo. […] Cancer cells consume the secreted lactate to produce ATP through the TCA cycle and oxidative phosphorylation processes. Some cancer cells use lactate as a substrate for TCA intermediates via monocarboxylate transporters (MCT1/4) as well as for ATP production. Lactate can be converted to pyruvate using lactate dehydrogenase (LDH) and can be further converted to acetyl-CoA by […] for fatty acid synthesis."}, "[5]": {"target": "T1, human recombinant MDH1 (Homo sapiens, UniProt P40925)", "T1 construct": "purchased BioVision", "T1 sequence (P40925 1-334)": "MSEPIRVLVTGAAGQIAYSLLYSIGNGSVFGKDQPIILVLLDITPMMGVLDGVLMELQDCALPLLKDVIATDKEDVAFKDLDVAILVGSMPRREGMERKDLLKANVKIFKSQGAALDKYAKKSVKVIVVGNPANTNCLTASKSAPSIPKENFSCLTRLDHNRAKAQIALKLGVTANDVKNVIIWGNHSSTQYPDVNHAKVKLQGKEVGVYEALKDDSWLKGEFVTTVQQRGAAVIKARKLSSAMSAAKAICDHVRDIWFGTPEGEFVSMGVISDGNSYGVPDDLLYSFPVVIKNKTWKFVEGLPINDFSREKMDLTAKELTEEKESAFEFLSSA", "assay": "MDH1 enzyme activity assay (oxaloacetate-dependent NADH oxidation)", "assay_type": "biochemical", "conditions": "means of three experiments", "from_the_text": "(§5) To develop the dual inhibitors of MDH1 and MDH2, we screened the newly synthesized LW1497 derivatives using MDH and MDH2 enzyme assays. LW1497 was used as the positive control for the MDH1/2 dual inhibitor. We evaluated the ability of the synthesized compounds to inhibit human recombinant MDH1 and MDH2 enzymatic activity using an oxaloacetate-dependent NADH oxidation assay (Table 1, Table 2, Table 3, Table 4, Table 5 and Table 6). Our SAR optimization strategy focused on four different parts of LW1497: (A) the introduction of various groups at different positions on the amide phenyl ring; (B) the replacement of the 3-(4-(2,4,4-trimethylpentan-2-yl) alkyl chain; (C) the alteration of the amide portion; and (D) the modification of the oxypropanamide linker portion (Figure 1).\n(§6) The activities of MDH1 and MDH2 were confirmed using an oxaloacetate-dependent NADH oxidation assay. Experiments were conducted using 100 mM of potassium phosphate buffer (pH 7.4) and human recombinant MDH1 (BioVision) and MDH2 (BioVision), and the results were obtained by measuring the absorbance at 340 nm. Enzyme activity was measured using a plate reader at a wavelength of 340 nm."}, "[6]": {"target": "T2, human recombinant MDH2 (Homo sapiens, UniProt P40926)", "T2 construct": "purchased BioVision", "T2 sequence (P40926 25-338)": "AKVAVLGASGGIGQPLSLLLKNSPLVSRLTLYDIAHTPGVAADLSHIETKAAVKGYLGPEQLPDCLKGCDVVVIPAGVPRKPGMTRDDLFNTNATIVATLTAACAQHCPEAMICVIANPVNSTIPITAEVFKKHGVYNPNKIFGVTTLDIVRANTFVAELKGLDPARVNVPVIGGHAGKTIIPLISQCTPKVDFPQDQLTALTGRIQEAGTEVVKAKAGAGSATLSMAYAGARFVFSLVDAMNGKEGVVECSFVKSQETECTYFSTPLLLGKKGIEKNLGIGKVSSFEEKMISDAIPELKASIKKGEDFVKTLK", "assay": "MDH2 enzyme activity assay (oxaloacetate-dependent NADH oxidation)", "assay_type": "biochemical", "conditions": "means of three experiments", "from_the_text": "as §5, §6"}, "[7]": {"tested_on": "A549 cells", "assay": "Intracellular ATP content (ATPlite)", "assay_type": "cell-based, human", "conditions": "6 h", "method": "as §4\nA549 cells (1 × 10^4 cells/96-well plate) were incubated for 6 h with or without drugs. After removing the supernatant, an ATP assay was performed using ATPlite (PerkinElmer, Waltham, MA, USA) according to the manufacturer’s instructions. ATP content was measured using a luminometer (Synergy HTX multimode reader, Winoski, VT, USA)."}, "[8]": {"tested_on": "A549 cells", "assay": "Real-time ATP production rate (XF analyzer)", "assay_type": "cell-based, human", "from_the_text": "We then examined whether the ATP production pattern was altered by drug treatment using an XF analyzer for real-time metabolic analysis (Figure 5)."}}}
{"smiles": "CC(C)(C)CC(C)(C)c1ccc(N2CCC(C(=O)Nc3cccc(OC(F)(F)F)c3)CC2)cc1", "note": "[Compound 50, N-(3-(Trifluoromethoxy)phenyl)-1-(4-(2,4,4-trimethylpentan-2-yl)phenyl)piperidine-4-carboxamide]", "values": [{"measurement": "IC50", "setting": "[1]", "value": "3.67 ± 0.06", "unit": "µM"}, {"measurement": "IC50", "setting": "[2]", "value": "3.94 ± 0.04", "unit": "µM"}, {"measurement": "ADP/ATP", "setting": "[3]", "value": "increase in ADP/ATP"}, {"measurement": "Lactate consumption", "setting": "[4]", "value": "did not change significantly"}, {"measurement": "IC50", "setting": "[5]", "value": "3.33 ± 0.18", "unit": "µM"}, {"measurement": "IC50", "setting": "[6]", "value": "2.24 ± 0.09", "unit": "µM"}, {"measurement": "ATP level", "setting": "[7]", "value": "reduced ATP level"}, {"measurement": "total ATP decrease", "setting": "[8]; 5 µM", "value": 14.6, "unit": "%"}, {"measurement": "total ATP decrease", "setting": "[8]; 10 µM", "value": 28.6, "unit": "%"}]}
